The supplement of paper PMC10307832

Assays:
PAC-1 = compound: C=CCc1cccc(/C=N/NC(=O)CN2CCN(Cc3ccccc3)CC2)c1O [PAC-1]; assay: relative viability (nuclei count vs DMSO), 5 days (fraction); higher = more cells survive
Method in brief: (§1)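 For viability, nuclei in each treated well were divided by nuclei in vehicle wells and the median across plates was taken. Lung cancer cell lines in 1536-well plates were pinned with five library-drug doses (not always all listed) spaced by √10, cultured 5 days without medium change, and imaged at 4× after Hoechst staining, with plates passing only at control CV below 25% and at least one doubling.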

BMX-IN-1 = compound: C=CC(=O)Nc1cc(-n2c(=O)ccc3cnc4ccc(-c5ccc(NS(C)(=O)=O)cc5)cc4c32)ccc1C [BMX-IN-1]; assay: as above
Method in brief: as §1

SK-MES-1 showed a relative viability (PAC-1; 0.02 µM) of 0.974, a relative viability (PAC-1; 0.06325 µM) of 0.987 and a relative viability (PAC-1; 0.2 µM) of 0.94. The relative viability (PAC-1; 2 µM) was 1.02, the relative viability (BMX-IN-1; 0.02 µM) was 1.1 and the relative viability (BMX-IN-1; 0.2 µM) was 1.1. The relative viability (BMX-IN-1; 0.6325 µM) was 1.11 and the relative viability (BMX-IN-1; 2 µM) was 0.998.
